Measurements: patent publication US5623080A, “Fluorone and pyronin Y derivatives” (Spectra Group Limited, Inc., priority 1995, dated 1997)
One block for each compound: values may come before it.

Experiments:
[1] = solubility; assay type: physicochemical
[2] = absorption wavelength (λmax) and extinction (ε); assay type: physicochemical; settings: for λmax in EtOH (first value) / ε (first value): Table 1, EtOH; for ε (first value): at first λmax, in M-1cm-1 (unit assumed)
[3] = pencil hardness
Experimental: (§1) To a resin formulation consisting of 15 parts urethane diacrylate, 15 parts DPHPA, 20 parts TPGDA and 40 parts TMPTA was added DIDMA, initiator and (4-octyloxyphenyl)phenyliodonium hexafluoroantimonate (OPPI). The samples were coated to a thickness of 15 microns and exposed to a 75 W tungsten halogen dental lamp (focused through an optical fiber) at a distance of 0.75 inch at which the Light intensity was about 0.40 W/cm^2. The molar ratios are indicative of the amounts of fluorone to onium salt to amine coinitiator. The double bond conversion was determined by FTIR spectroscopy. The pencil hardness of a given test sample is measured by holding a pencil at a 45° angle to the sample and drawing across it towards the person testing it. Using the pencils in an order from softest to hardest, the first pencil that scratches the surface is assigned as the pencil hardness of the sample. The pencil hardness scale is as follows from softest to hardest: 4B, 3B, 2B, B, HB, H, 2H, 3H, 4H, 6H. For instance, if a 2H pencil is the first pencil to scratch the surface then the pencil hardness is 2H.
At the extreme ends of the scale, it is impossible to determine the actual pencil hardness. […] Likewise, if the 4B pencil scratches the sample, the only assignment that can be made is <4B, unless it is a lot softer than 4B in which case a <<4B can be assigned. A pencil hardness of 4H is generally considered satisfactory. Pencil hardness data was greater than 6H after 30 seocnd exposure for all samples except for the control samples without amine (1:2:0). The controls were all less than 4B an 0.05 wt %, 0.10 wt %, and 0.15 wt %.
Photosensitive compositions were prepared from the resin formulation of Example 35 containing 1% NPG and 0.05% DIBF or 0.05% DIEF. The samples were exposed under the conditions shown in the following table and pencil hardness was measured.
Diphenyliodonium hexafluoroantimonate was added to DIBF samples.
Samples were also prepared using 1% DIDMA in addition to the fluorone for a 20:1 weight ratio.
Samples were also prepared from the same resin formulation containing 0.1% DIBF in addition to the coinitiator listed in the following Table 9 with the exposure condition and pencil hardness results shown.
Using the resin formulation of Example 36, photosensitive compositions were prepared using TIHF, DIDMA and OPPI at a concentration of 0.21% and in the molar ratios shown in Table 10 which follows. Exposure was conducted with the dental lamp at a distance of 1 inch from the sample to provide an intensity of about 0.26 W/cm^2. Molar ratios are fluorone:onium salt:amine.

[4] = double bond conversion (C=C% Conversion) by FTIR; settings: addition of coinitiator to onium salt composition
Experimental: as §1

[5] = film speed; settings: addition of coinitiator to onium salt composition
From the text: Examples of onium salts useful in the invention can be found in published European Patent Application 0 408227A1. The preferred onium salts for use in the invention are diphenyliodonium salts such as diphenyliodonium hexafluorophosphate, arsenates, antimonates, etc., and, more particularly,hexafluoro-antimonate. Onium salts of simple anions such as chlorides, bromides, etc. are also useful in free radical polymerizable compositions. A particularly preferred onium salt is OPPI below. Addition of a coinitiator such as NPG improves film speed, pencil hardness and double bond conversion. A particularly preferred initiator system is a combination of an iodofluorone in accordance with the invention such as TIHF or DIBF, an amine such as NPG or DIDMA and an onium salt. A preferred molar ratio of fluorone to onium salt to amine is about 1:2:3. […] These onium salt formulations are illustrated in the following Examples 35-37.

[6] = depth of cure; settings: other fluorone dyes
From the text: One of the advantages of the fluorone dye photoinitiators in this invention is the depth of the cure that is obtainable. This is in contrast to UV photoinitators that causes a "screening" effect which prevents the UV light from penetrating beyond a certain […] depth, usually several millimeters. By contrast, the fluorone dye bleaches as it photoinitiates and is concommitantly converted into a non-visible absorbing species thus allowing more visible light to penetrate which continues the cure. This cascading bleaching effect permits substantial depth of cure which can easily reach several inches.
An acrylate monomer mixture was composed of 15 parts urethane diacrylate, 20 parts TPGPA, 40 parts TMPTA and 15 parts DPHPA, and a 20 to 1 weight ratio of NPG coinitiator to DIEF or DIBF fluorone dye. For dye concentrations of 0.01, 0.05 and 0.1 weight, all the formulations cured to a depth of 3 cm in 30 seconds when exposed to a 350 watt tungsten halogen light which provides about 500 mw/cm^2 irradiance. When the irradiance was increased to about 2 watts/cm^2 cure speed was shortened to 5 seconds for the same depth.
An acrylate mixture was composed of 60% urethane diacrylate, 30% DPHPA, 10% BDDA, and 0.05 weight % of DIEF or DIBF fluorone dye with 2 weight % of DIDMA. The formulation cure to a depth greater than 1 cm in 10 seconds when exposed to a 75 watt tungsten halogen lamp which provided an irradiance of about 260 mw/cm^2.
An acrylate mixture was composed of 33% TMPTA, 33% DPHPA, 33% Epoxy acrylate, and 2% of DIDMA with either 0.01, 0.05 or 0.1 weight % of DIEF. All samples cured to a depth greater than 1 cm in 10 seconds when exposed to a 75 watt tungsten halogen.
An acrylate mixture was composed of 70% urethane diacrylate, 5% DPHPA, 25% BDDA, and 2% DIDMA with either 0.01, 0.03 or 0.1 weight % DIEF. The 0.01 and 0.03 samples cured after 2 passes through a 300 watt per inch medium pressure mercury arc lamp at a speed of 50 feet/minute to a depth greater than 3 mm. The 0.1 sample cured to a depth of greater than 1.5 mm.

[7] = fluorescence (λf, φf); assay type: physicochemical
From the text: In Table 2 below, the properties of the foregoing initiators are shown:
Entries in the table are in the solvents according to the following order.

[8] = pKa; assay type: physicochemical
From the text: (§2) In Table 2 below, the properties of the foregoing initiators are shown: […]

[9] = oxidation and reduction potentials (Eox, Ered); assay type: physicochemical; settings: in V (unit assumed)
From the text: as §2

solubility in CDCl3 [1]: almost no solubility
solubility in DMSO ([1]; DMSO): poor solubility
λmax in EtOH (first value) [2]: 538
ε (first value) [2]: 84,800
SMILES: CCCCCCCC(=O)c1cc2cc3cc(I)c(=O)c(I)c-3oc2c(I)c1O [Compound 17, 3-hydroxy-4,5,7-triiodo-2octanoyl-6-fluorone]

solubility in CDCl3 [1]: very good solubility
λmax in EtOH (first value) [2]: 636
ε (first value) [2]: 17,000
absorption wavelength ([2]; comparison): 638 nm
SMILES: CCCCCCCC(=O)c1cc2c(C#N)c3cc(I)c(=O)c(I)c-3oc2c(I)c1O [Compound 18, 9-cyano-3-hydroxy-4,5,7-triiodo-2-octanoyl-6-fluorone]

SMILES: O=C(O)CNc1ccccc1 [NPG, N-phenylglycine, reference compound]
Pencil hardness ([3]; addition of coinitiator to onium salt composition): improves
double bond conversion [4]: improves
film speed [5]: improves

φf [7]: .13
pKa [8]: 4.08
λmax in EtOH (first value) [2]: 536
ε (first value) [2]: 91200
λmax ([2]; ethanol, synthesis example): 536 nm
Eox [9]: 1.04
Ered [9]: -.95
SMILES: O=c1c(I)cc2cc3cc(I)c(O)c(I)c3oc-2c1I [TIHF, 3-hydroxy-2,4,5,7-tetraiodo-6-fluorone]
Pencil hardness ([3]; 0.21%, TIHF:OPPI:DIDMA (1:1:0), dental lamp 60 sec.): 4H
Pencil hardness ([3]; 0.21%, TIHF:OPPI:DIDMA (1:1:1), dental lamp 60 sec.): 5-6H
Pencil hardness ([3]; 0.21%, TIHF:OPPI:DIDMA (1:1:5), dental lamp 60 sec.): > 6H
Pencil hardness ([3]; 0.21%, TIHF:OPPI:DIDMA (1:1:10), dental lamp 60 sec.): > 6H
Pencil hardness ([3]; 0.21%, TIHF:OPPI:DIDMA (1:1:33), dental lamp 60 sec.): > 6H
Pencil hardness ([3]; 0.21%, TIHF:OPPI:DIDMA (1:2:0), dental lamp 60 sec.): 5-6H
Pencil hardness ([3]; 0.21%, TIHF:OPPI:DIDMA (1:2:5), dental lamp 60 sec.): > 6H
Pencil hardness ([3]; 0.21%, TIHF:OPPI:DIDMA (1:2:10), dental lamp 60 sec.): > 6H
Pencil hardness ([3]; 0.21%, TIHF:OPPI:DIDMA (1:2:33), dental lamp 60 sec.): > 6H
Pencil hardness ([3]; 0.21%, TIHF:OPPI:DIDMA (1:5:)), dental lamp 60 sec.): 5-6H
Pencil hardness ([3]; 0.21%, TIHF:OPPI:DIDMA (1:10:0), dental lamp 60 sec.): 5-6H
depth of cure results [6]: have also been observed
